Experimental data published in patent US5968948A, “Annelated dihydropyridines and the use thereof for preparing pharmaceutical preparations” (Boerhinger Ingelheim GmbH, priority 1993, dated 1999).

Tested on: RBL-2H3-cells
Test: Antigen-induced (DNP-BSA) activation of sensitised RBL-2H3 cells, fluorometric calcium measurement
Type: cell-based
Conditions: Rattus norvegicus, read-out: inhibition of the antigen-induced cell activation
Protocol: Individual RBL-2H3-cells (a tumour cell line related to the mast cells) adhering to glass slides are used.
The cultivation and attachment of the RBL-2H3-cells are carried out by the method described by HIDE and BEAVEN (1991). In order to sensitise the adhesive RBL-2H3-cells the cells are incubated for 2 hours at ambient temperature with a 1:2000 diluted commercial gammaglobulin E-solution against a dinitrophenol-bovine serum albumin complex (DNP-BSA-antigen). The cells are then washed. By the addition of 0.1 ml of DNP-BSA-solution (10 μg/ml) there is a massive immunological cell activation which is mediated by a cytoplasmic Ca^2+ -overload. The fluorometric calcium measurement in the cytoplasm of individual adhering RBL-2H3-cells is carried out analogously to the method described by KUDO and OGURA (1986) for neuronal cells, which is also explained hereinbefore in this specification.
The comparison used in these investigations is (10 μM) chromoglycate which brings about an approximately 50% inhibition of the antigen-induced cell activation.

For `O=C(O)c1cc(=O)c2c(OCC(O)COc3cccc4oc(C(=O)O)cc(=O)c34)cccc2o1` [chromoglycate], the inhibition at 10 µM was ~50%.
